According to patent publication US20260315431A1, “NANOMATERIAL ENCAPSULATED BIOFILM INHIBITORS FOR DENTAL CARIES TREATMENT” (THE UAB RESEARCH FOUNDATION, priority 2023, published 2026):
Where two headings read alike, the source gives them in different places.

What was measured:
[1] = system: S. mutans UA159; assay: Biofilm inhibition, S. mutans UA159 (crystal violet, OD562); type: cell-based, Streptococcus mutans; details: for inhibition at 50 µM: UA159, 50 μM
Method: The bacterial strains, S. mutans UA159, S. gordonii DL1, and S. sanguinis SK36 were inoculated statically at 37° C. under 5% CO2 in Todd Hewitt Broth (THB) for 24 h. The cultures were then diluted with fresh THB (1:5) and reinoculated until optical density at 470 nm (OD470) reached 1. The optical density was read using BioTek 800TS microplate reader at 470 nm for bacterial growth and 562 nm for biofilm stained with crystal violet. Data was plotted in Graphpad Prism9.
Biofilm inhibition assays. Biofilm inhibition assays were performed in polystyrene microtiter 96 well plates. Stock solutions were prepared in chemically defined medium (CDM, JRH Biosciences, Lenexa, KS) with 2% sucrose, 1% bacteria cultures and various concentrations of the small molecule inhibitors to examine their activity against biofilm formation as described^69, 70. These stocks were assayed in 96 well plates in triplicate and incubated at 37° C. and 5% CO2 for 16 h. After reading optical density for bacterial growth, the plate was gently washed with water, dried, and stained with crystal violet, and then gently rinsed again with deionized water leaving the stained biofilm at the bottoms of the wells. Biofilms was dissolved in 200 μL of 30% acetic acid and absorbance at 562 nm was used read to determine biofilm biomass. Each assay was carried out at least in triplicate. Biofilm inhibitory concentration (IC50) of the compounds was determined by serial dilutions.
All bacterial strains (S. mutans UA159, S. gordonii DL1, and S. sanguinis SK36) were inoculated statically at 37° C. under 5% CO2 environment in Todd Hewitt Broth (THB) for 24 h^[61]. The cultures were then diluted with fresh THB (1:5) and reinoculated until the optical density at 470 nm reaches 1. The optical density was read using BioTek 800 TS absorbance reader at 470 nm for bacterial growth and 562 nm for biofilm stained with crystal violet. Data was plotted in Prism 10.0.2.
Biofilm inhibition assays were performed in polystyrene microtiter 96-well plates. Stock solutions were prepared in chemically defined medium (CDM) with 1% sucrose, 1% bacteria cultures and various concentrations of the small molecule inhibitors to examine their activity against biofilm formation as described^[62, 63]. These stocks were assayed in 96 well plates in triplicate and incubated at 37° C. and 5% CO2 for 16 h. After reading optical density for bacterial growth, the plate was washed, dried, and stained with 0.1% crystal violet which was again rinsed well with deionized water leaving the stained biofilm at the bottoms of the wells. This biofilm was dissolved in 200 μL of 30% acetic acid and absorbance at 562 nm was read to determine amount of biofilm formation. Each assay was carried out at least in triplicate. Biofilm inhibitor concentration (IC50) of the compounds was determined by serial dilutions from 0 μM-50 μM (1% DMSO).

[2] = system: S. mutans UA159 biofilms; assay: Fluorescence microscopy of S. mutans UA159 biofilms (Syto-9, Cascade Blue-dextran, propidium iodide); type: cell-based, Streptococcus mutans; details: 16 h
Method: FIGS. 1.6A-E illustrate the biofilm inhibitory activities of compound HA5. FIG. 1.6A illustrates that S. mutans UA159 were co-incubated with HA5 at various concentrations and biofilm formation was measured at OD562 using the crystal violet protocol. FIG. 1.6B illustrates Gtfs precipitated from S. mutans culture were co-incubated with HA5 at various concentrations and the glucan production was quantified using cascade blue staining and subsequent image processing with ImageJ. FIG. 1.6C illustrates representative fluorescence microscopy images of UA159 biofilms after 16 h of treatment with various concentrations of HA5. Bacterial cells were stained with Syto-9 (green, panel I); glucans were stained with Cascade Blue-dextran conjugated dye (blue, panel II); eDNA was stained with propidium iodide (red, panel III) and a merged image of all three staining images (panel IV). FIG. 1.6D illustrates S. mutans UA159, S. gordonii DL1 and S. sanguinis SK36 were co-incubated with HA5 at 50 μM and 100 μM and their growth were measured at OD470. FIG. 1.6E illustrates the chemical structure of HA5. Each of the biofilm, glucan and growth assays were conducted in triplicate and statistical significance was tested with one-way ANOVA. p<0.0001. […]
HA5 inhibits S. mutans UA159 biofilms, glucan production and eDNA levels. The antibiofilm activities of HA5 were further investigated by fluorescence microscopy imaging. […] In addition, propidium iodide was used to determine the presence of extracellular DNA (eDNA) in S. mutans biofilms. […] These findings reaffirm that HA5 inhibited S. mutans biofilms by preventing the synthesis of glucans and minimizing the presence of eDNA, two integral biofilm matrix elements crucial for S. mutans biofilm formation.
In addition, propidium iodide was used to determine the presence of extracellular DNA (eDNA) in S. mutans biofilms. […] These findings reaffirm that compound HA6 inhibited S. mutans biofilms by preventing the synthesis of glucans and minimizing the presence of eDNA, two integral biofilm matrix elements crucial for S. mutans biofilm formation.
Prior to in vivo evaluations, the biofilm inhibitory activities of PEHA5 were investigated. […] In addition, propidium iodide was used to determine the presence of eDNA in S. mutans biofilms. […] The effects of unloaded polymersome vesicles on S. mutans biofilm were compared with the control (1% DMSO) and the biofilm inhibitory activities of PEHA5 and HA5 at a single dose 50 μM concentration. […] In addition, the effect of PEHA5 on the planktonic growth of two commensal Streptococci, S. gordonii and S. Sanguinis were compared with the control (1% DMSO) and HA5 at a single treatment dose of 50 μM.
The biofilm inhibitory activities of PEHA6 were investigated. […] In addition, propidium iodide was used to determine the presence of eDNA in S. mutans biofilms. […] The effects of PEHA6 on S. mutans biofilm were compared with the control (1% DMSO) and the biofilm inhibitory activities of HA5 and HA6 side by side at a single dose, 50 μM concentration. […] In addition, the effect of PEHA6 on the planktonic growth of S. mutans was compared with HA5, HA6 at 50 μM.

[3] = Streptococcus mutans, UA159, read-out: Biofilm IC50
[4] = Streptococcus mutans, S. mutans UA159 biofilm, read-out: Biofilm IC50

Row | SMILES | S. mutans biofilm inhibition ([1]; 25 μM) [%] | inhibition at 50 µM ([1]; Streptococcus mutans) [%] | IC50 [1, 3] [µM] | inhibition at 25 µM ([1]; Streptococcus mutans, UA159, read-out: S. mutans biofilm inhibition, 25 μM) [%] | IC50 [1, 4] [µM] | Syto-9 stained bacterial cells within biofilms ([2]; 5 μM) | eDNA (propidium iodide) ([2]; 5 μM) | glucans (Cascade Blue-dextran) ([2]; 5 μM) | Syto-9 stained bacterial cells within biofilms ([2]; 50 μM) | eDNA (propidium iodide) ([2]; 50 μM) | glucans (Cascade Blue-dextran) ([2]; 50 μM) | Syto-9 stained bacterial cells within biofilms ([2]; 15 μM) | eDNA (propidium iodide) ([2]; 15 μM) | glucans (Cascade Blue-dextran) ([2]; 15 μM) | Syto-9 stained bacterial cells within biofilms ([2]; 30 μM) | eDNA (propidium iodide) ([2]; 30 μM) | glucans (Cascade Blue-dextran) ([2]; 30 μM)
1 | O=C1/C(=C/c2cc(O)c(O)cc2O)Oc2ccccc21 [HA5, 2-[(2′,4′,5′-Trihydroxyphenyl)methylidene]-2,3-dihydro-1-benzofuran-3-one] | 90 | > 95 | 6.42 | 80 | 6.42 | significant reduction in biofilms | noticeable reduction of eDNA | significantly reduced | complete inhibition | almost complete absence of eDNA | no glucan formation was evident | – | – | – | – | – | –
2 | O=C1/C(=C/c2cc(O)c(O)c(O)c2)Oc2ccccc21 [HA6, 2-[(3′,4′,5′-Trihydroxyphenyl)methylidene]-2,3-dihydro-1-benzofuran-3-one] | – | > 95 | 18.9 | – | 18.9 | – | – | – | – | – | – | significant reduction in biofilms | noticeable reduction of eDNA | significantly reduced | complete inhibition | almost complete absence of eDNA | no glucan formation was evident
